Earlier results, collected in article PMC9516332 (Frontiers in Oncology, 2022).
Where two headings read alike, the source gives them in different places.

Key:
Conditions in all cases: cited from earlier work
[1] = target: T1, panel of 255 wild-type kinases (Homo sapiens, UniProt Q14164)
T1 sequence (Q14164 1-716): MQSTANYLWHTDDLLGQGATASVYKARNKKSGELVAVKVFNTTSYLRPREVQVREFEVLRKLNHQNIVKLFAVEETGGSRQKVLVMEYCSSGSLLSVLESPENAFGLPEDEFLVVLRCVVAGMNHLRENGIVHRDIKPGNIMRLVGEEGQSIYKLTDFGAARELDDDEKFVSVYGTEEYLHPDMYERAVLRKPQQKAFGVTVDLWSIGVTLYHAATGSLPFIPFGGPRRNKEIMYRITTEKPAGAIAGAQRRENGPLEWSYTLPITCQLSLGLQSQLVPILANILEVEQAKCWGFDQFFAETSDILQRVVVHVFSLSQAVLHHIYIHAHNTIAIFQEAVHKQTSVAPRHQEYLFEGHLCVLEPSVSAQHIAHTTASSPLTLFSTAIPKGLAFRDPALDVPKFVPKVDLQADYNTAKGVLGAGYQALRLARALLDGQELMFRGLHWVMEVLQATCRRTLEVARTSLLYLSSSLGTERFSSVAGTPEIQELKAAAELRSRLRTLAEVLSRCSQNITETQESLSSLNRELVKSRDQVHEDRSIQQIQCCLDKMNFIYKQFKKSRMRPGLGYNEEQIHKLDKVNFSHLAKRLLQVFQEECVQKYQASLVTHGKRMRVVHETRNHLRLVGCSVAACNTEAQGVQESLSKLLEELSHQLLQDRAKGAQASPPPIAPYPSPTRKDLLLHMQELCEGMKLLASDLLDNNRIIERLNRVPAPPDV

[2] = target: panel of 255 wild-type kinases (Homo sapiens, UniProt Q15759)
[3] = target: T2, panel of 255 wild-type kinases (Homo sapiens, UniProt Q8NE63)
T2 sequence (Q8NE63 1-616): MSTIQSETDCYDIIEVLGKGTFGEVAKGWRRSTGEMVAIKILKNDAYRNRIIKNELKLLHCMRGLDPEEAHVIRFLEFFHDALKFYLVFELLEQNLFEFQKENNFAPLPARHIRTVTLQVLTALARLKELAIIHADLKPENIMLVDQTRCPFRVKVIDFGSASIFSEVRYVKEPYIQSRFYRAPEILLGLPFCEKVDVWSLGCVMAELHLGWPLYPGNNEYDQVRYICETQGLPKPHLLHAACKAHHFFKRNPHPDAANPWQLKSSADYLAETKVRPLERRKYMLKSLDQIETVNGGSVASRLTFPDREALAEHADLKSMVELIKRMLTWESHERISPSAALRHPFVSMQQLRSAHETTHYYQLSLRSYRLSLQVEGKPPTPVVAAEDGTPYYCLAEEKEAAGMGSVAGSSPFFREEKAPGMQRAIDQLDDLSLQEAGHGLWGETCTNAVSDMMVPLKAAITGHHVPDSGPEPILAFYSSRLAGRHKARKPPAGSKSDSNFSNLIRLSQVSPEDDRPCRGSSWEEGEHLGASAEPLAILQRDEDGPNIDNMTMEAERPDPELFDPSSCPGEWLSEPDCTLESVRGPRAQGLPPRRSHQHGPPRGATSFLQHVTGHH

[4] = target: T3, panel of 255 wild-type kinases (Homo sapiens, UniProt Q8TDC3)
T3 sequence (Q8TDC3 1-778): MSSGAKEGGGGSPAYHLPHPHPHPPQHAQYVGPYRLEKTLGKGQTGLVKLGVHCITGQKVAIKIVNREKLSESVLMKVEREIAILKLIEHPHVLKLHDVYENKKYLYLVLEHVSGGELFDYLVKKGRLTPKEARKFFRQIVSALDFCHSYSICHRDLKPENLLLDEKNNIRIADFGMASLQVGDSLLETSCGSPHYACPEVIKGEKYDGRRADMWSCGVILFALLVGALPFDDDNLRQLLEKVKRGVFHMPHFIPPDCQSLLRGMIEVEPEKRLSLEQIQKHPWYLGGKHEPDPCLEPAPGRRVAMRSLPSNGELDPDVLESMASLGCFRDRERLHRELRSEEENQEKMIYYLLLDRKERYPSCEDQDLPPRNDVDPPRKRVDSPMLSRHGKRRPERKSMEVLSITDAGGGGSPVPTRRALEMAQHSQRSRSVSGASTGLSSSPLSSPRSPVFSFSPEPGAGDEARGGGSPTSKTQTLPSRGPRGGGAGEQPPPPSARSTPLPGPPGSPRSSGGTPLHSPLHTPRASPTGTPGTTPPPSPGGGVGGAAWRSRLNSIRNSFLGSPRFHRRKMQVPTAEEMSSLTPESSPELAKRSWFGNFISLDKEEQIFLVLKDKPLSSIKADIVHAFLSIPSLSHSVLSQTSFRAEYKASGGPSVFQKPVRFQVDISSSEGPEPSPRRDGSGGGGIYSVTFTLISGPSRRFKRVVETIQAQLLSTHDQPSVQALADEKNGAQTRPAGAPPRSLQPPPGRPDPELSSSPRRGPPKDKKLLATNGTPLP

[5] = target: panel of 255 wild-type kinases (Homo sapiens, UniProt Q9Y2H1)
[6] = kinase IKKε, 1 µmol/L single concentration, ref DOI: 10.1158/1535-7163.MCT-18-0877
[7] = p38β, 1 µmol/L single concentration, ref DOI: 10.1158/1535-7163.MCT-18-0877
[8] = kinase HIPK4, 1 µmol/L single concentration, ref DOI: 10.1158/1535-7163.MCT-18-0877
[9] = BRSK1 kinase assay, 1 µmol/L single concentration, ref DOI: 10.1158/1535-7163.MCT-18-0877
[10] = NDR2, 1 µmol/L single concentration, ref DOI: 10.1158/1535-7163.MCT-18-0877
[11] = kinase IKKε, 1 µmol/L single concentration, ref DOI: 10.1371/journal.pone.0092146
[12] = p38β, 1 µmol/L single concentration, ref DOI: 10.1371/journal.pone.0092146
[13] = kinase HIPK4, 1 µmol/L single concentration, ref DOI: 10.1371/journal.pone.0092146
[14] = BRSK1 kinase assay, 1 µmol/L single concentration, ref DOI: 10.1371/journal.pone.0092146
[15] = NDR2, 1 µmol/L single concentration, ref DOI: 10.1371/journal.pone.0092146

Structure (SMILES)	%-inhibition at 1 µmol/L, IKKε [1, 6] [%]	%-inhibition, p38β [2, 7] [%]	%-inhibition at 1 µmol/L, HIPK4 [3, 8] [%]	%-inhibition BRSK1 [4, 9] [%]	%-inhibition, NDR2 [5, 10] [%]	%-inhibition at 1 µmol/L, IKKε [1, 11] [%]	%-inhibition, p38β [2, 12] [%]	%-inhibition at 1 µmol/L, HIPK4 [3, 13] [%]	%-inhibition BRSK1 [4, 14] [%]	%-inhibition, NDR2 [5, 15] [%]	further results
CC#CC(=O)N1CCC[C@H]1c1nc(-c2ccc(C(=O)Nc3ccccn3)cc2)c2c(N)nccn12 [acalabrutinib]	1.46	-3	-10	-1.79	-6.41						
CCc1cc2c(cc1N1CCC(N3CCOCC3)CC1)C(C)(C)c1[nH]c3cc(C#N)ccc3c1C2=O [alectinib]	1.59	0.144	26	8.48	4						
COc1cc(N2CCC(N3CCN(C)CC3)CC2)ccc1Nc1ncc(Cl)c(Nc2ccccc2P(C)(C)=O)n1 [brigatinib]											%-inhibition at 1 µmol/L, IKKε [1]: 24%; %-inhibition, p38β [2]: 3.38%; %-inhibition at 1 µmol/L, HIPK4 [3]: 81%; %-inhibition BRSK1 [4]: 84%; %-inhibition, NDR2 [5]: 62%
Cc1cc(Nc2ncc(Cl)c(Nc3ccccc3S(=O)(=O)C(C)C)n2)c(OC(C)C)cc1C1CCNCC1 [ceritinib]	6.42	2.35	36	32	14						
O=C(c1ccc(F)c(F)c1Nc1ccc(I)cc1F)N1CC(O)([C@@H]2CCCCN2)C1 [cobimetinib]	-3.35	4	1.8	-13	2.54						
C[C@@H](Oc1cc(-c2cnn(C3CCNCC3)c2)cnc1N)c1c(Cl)ccc(F)c1Cl [crizotinib]						7.49	0.299	31	12	-4.76	
CC(C)(C)c1nc(-c2cccc(NS(=O)(=O)c3c(F)cccc3F)c2F)c(-c2ccnc(N)n2)s1 [dabrafenib]						15	5.3	92	37	-2	
C=CC(=O)N1CCC[C@@H](n2nc(-c3ccc(Oc4ccccc4)cc3)c3c(N)ncnc32)C1 [ibrutinib]	-0.696	9	2.6	-7	3.47						
CO[C@@H]1[C@H](N(C)C(=O)c2ccccc2)C[C@H]2O[C@]1(C)n1c3ccccc3c3c4c(c5c6ccccc6n2c5c31)C(=O)NC4 [midostaurin]	97	1.19	63		22						%-inhibition BRSK1 [4]: 95%
C=CC(=O)Nc1cc(Nc2nccc(-c3cn(C)c4ccccc34)n2)c(OC)cc1N(C)CCN(C)C [osimertinib]	8	4.56	92	-12	10						
CC(=O)Nc1cccc(-n2c(=O)n(C3CC3)c(=O)c3c(Nc4ccc(I)cc4F)n(C)c(=O)c(C)c32)c1 [trametinib]						-3.63	2.31	2.78	-6	-1.48	
CCCS(=O)(=O)Nc1ccc(F)c(C(=O)c2c[nH]c3ncc(-c4ccc(Cl)cc4)cc23)c1F [vemurafenib]						-9	24	-0.437	-8	-2.51	
